Patent US12291529B2, “Heterocyclic GLP-1 agonists” (Gasherbrum Bio, Inc., priority 2023, dated 2025)

Molecular target: GLP-1 Receptor (Homo sapiens, UniProt P43220)
Assay: GLP-1R agonist cAMP stimulation assay (HEK293/GLP1R/CRE-LUC cells, Cisbio cAMP dynamic 2 kit)
Assay type: cell-based
Details: Table 3, HEK293/GLP1R/CRE-LUC cells, 30 min
Description: Activation of GLP-1 receptor is known to stimulate cyclic AMP (cAMP) production in cells which indicates primary coupling to the G as subunit of the G protein heterotrimeric complex.
To optimize functional activity directed toward G as coupling, a HEK293/CRE-Luc cell line developed by HDB stably expressing the GLP-1 Receptor was used. 200× concentration of compound working solutions were prepared (Agilent Technologies Bravo) with ½ log serial dilution in 384-well Echo LDV plate (Labcyte, CatOLP-0200). 50 nL/well 200× concentration of compound working solutions were moved to 384-well white low volume plate (Greiner, Cat4784075) using Labcyte ECH0550.1×10^5 cells/mL HEK293/GLP1R/CRE-LUC (HD Biosciences) cell suspensions prepared with assay buffer (DPBS containing 0.5 mM IBMX (Sigma, Cat15879) and 0.10 BSA (GENVIEW, Cat4FA016-100g)), 10 uL cell suspensions were added to each well of previous generated assay plate which already contains 50 n^1 compound at 200 xconcentration using ThermioFisher Multidrop Combi (1000 cells/well). Seal the plate and incubate at 37 with […] for 30 m.
After incubation the cAMP assay signal was generated using cAMP dynamic 2 Kit (Cisbio). 5 μL cAMP-d2 working solution was added to each well, followed with 5 L Anti-cAMP antibody-cryptate working solution added to each well using ThermoFisher Multidrop Combi. Incubate at room temperature for 1 hour protected from light. Read the fluorescence at 665 and 615 nm with Reader PerkinElmer EnVision. % oActivity=100%×(mean RLU of test sample−mean RLU of vehicle control)/(mean RLU of MAX control−mean RLU of vehicle control)

Sequence of GLP-1 Receptor (P43220 24-463, species assumed): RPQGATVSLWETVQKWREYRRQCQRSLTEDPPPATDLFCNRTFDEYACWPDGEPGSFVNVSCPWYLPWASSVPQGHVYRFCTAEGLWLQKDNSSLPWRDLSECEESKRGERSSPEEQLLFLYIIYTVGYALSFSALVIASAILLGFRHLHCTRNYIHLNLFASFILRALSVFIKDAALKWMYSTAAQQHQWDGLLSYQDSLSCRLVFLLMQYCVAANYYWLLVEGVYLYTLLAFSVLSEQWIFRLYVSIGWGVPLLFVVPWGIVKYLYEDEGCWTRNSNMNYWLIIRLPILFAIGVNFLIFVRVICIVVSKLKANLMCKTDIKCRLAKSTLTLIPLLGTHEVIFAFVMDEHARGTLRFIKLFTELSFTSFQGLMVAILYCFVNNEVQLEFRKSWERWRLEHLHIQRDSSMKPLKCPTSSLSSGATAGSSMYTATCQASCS

EC50 | Compound
0.02 nM | Cc1cc(-n2nc3c(c2-n2ccn(-c4ccc5c(c4F)CN=S5(=O)C4CC4)c2=O)[C@H](C)N(C(=O)c2cc4cc([C@H]5CCOC(C)(C)C5)ccc4n2[C@@]2(c4noc(=O)[nH]4)C[C@@H]2C)CC3)cc(C)c1F (single isomer, unassigned) [Compound 192]
0.018 nM | Cc1cc(-n2nc3c(c2-n2ccn(-c4ccc5c(c4F)CCN=S5(=O)C4CC4)c2=O)[C@H](C)N(C(=O)c2cc4cc([C@H]5CCOC(C)(C)C5)ccc4n2[C@@]2(c4noc(=O)[nH]4)C[C@@H]2C)CC3)cc(C)c1F (single isomer, unassigned) [Compound 197]
0.099 nM | CCS(=N)(=O)c1ccc(-n2ccn(-c3c4c(nn3-c3cc(C)c(F)c(C)c3)CCN(C(=O)c3cc5cc(C6CCOCC6)ccc5n3[C@@]3(c5noc(=O)[nH]5)C[C@@H]3C)[C@H]4C)c2=O)cn1 (single isomer, unassigned) [Compound 140]
0.072 nM | CN=S(=O)(c1ccc(-n2ccn(-c3c4c(nn3-c3cc(C)c(F)c(C)c3)CCN(C(=O)c3cc5cc([C@H]6CCOC(C)(C)C6)ccc5n3[C@@]3(c5noc(=O)[nH]5)C[C@@H]3C)[C@H]4C)c2=O)c(Cl)c1)C1CC1 (single isomer, unassigned) [Compound 205]
0.057 nM | CN=S1(=O)CCC(Oc2ccc(-n3ccn(-c4c5c(nn4-c4cc(C)c(F)c(C)c4)CCN(C(=O)c4cc6cc(C7CCOCC7)ccc6n4[C@@]4(c6noc(=O)[nH]6)C[C@@H]4C)[C@H]5C)c3=O)cc2C(F)F)CC1 (single isomer, unassigned) [Compound 235]
0.015 nM | Cc1cc(-n2nc3c(c2-n2ccn(-c4ccc5c(c4)CS(C)(=O)=N5)c2=O)[C@H](C)N(C(=O)c2cc4cc([C@H]5CCOC(C)(C)C5)ccc4n2[C@@]2(c4noc(=O)[nH]4)C[C@@H]2C)CC3)cc(C)c1F (stereo partly drawn) [Compound 227, 5-{3-[(4S)-2-(4-fluoro-3,5-dimethylphenyl)-5-({5-[(4S)-2,2-dimethyl-3,4,5,6-tetrahydro-2H-pyran-4-yl]-1-[(1S,2S)-2-methyl-1-(5-oxo-4H-1,2,4-oxadiazol-3-yl)cyclopropyl]indol-2-yl}carbonyl)-4-methyl-4,5,6,7-tetrahydropyrazolo[4,3-c]pyridin-3-yl]-2-oxoimidazol-1-yl}-2-methyl-3H-2λ^6-benzo[c][1,2]thiazol-2-one]
0.038 nM | Cc1cc(-n2nc3c(c2-n2ccn(-c4ccc5c(c4)CCCN=S5(=O)C4CC4)c2=O)[C@H](C)N(C(=O)c2cc4cc([C@H]5CCOC(C)(C)C5)ccc4n2[C@@]2(c4noc(=O)[nH]4)C[C@@H]2C)CC3)cc(C)c1F (single isomer, unassigned) [Compound 212]
0.071 nM | COc1cc(-n2ccn(-c3c4c(nn3-c3cc(C)c(F)c(C)c3)CCN(C(=O)c3cc5cc(C6CCOCC6)ccc5n3[C@@]3(c5noc(=O)[nH]5)C[C@@H]3C)[C@H]4C)c2=O)ccc1S(C)(=N)=O (stereo partly drawn) [Compound 123, 3-[(1S,2S)-1-(2-{[(S)-2-(4-fluoro-3,5-xylyl)-3-{3-[4-(iminomethyloxothio)-3-methoxyphenyl]-2-oxo-1,3-dihydro-1-imidazolyl}-4-methyl-4,5,6,7-tetrahydro-2H-1,2,5-triazainden-5-yl]carbonyl}-5-(tetrahydro-2H-pyran-4-yl)-1-indolyl)-2-methylcyclopropyl]-1,2,4-oxadiazol-5(4H)-one]
0.057 nM | CN=S(C)(=O)c1ccc(-n2ccn(-c3c4c(nn3-c3cc(C)c(F)c(C)c3)CCN(C(=O)c3cc5cc(C6CCOCC6)ccc5n3[C@@]3(c5noc(=O)[nH]5)C[C@@H]3C)[C@H]4C)c2=O)cc1 (single isomer, unassigned) [Compound 112]
0.014 nM | Cc1cc(-n2nc3c(c2-n2ccn(-c4ccc(CS(C)(=N)=O)cc4)c2=O)[C@H](C)N(C(=O)c2cc4cc(C5CCOCC5)ccc4n2[C@@]2(c4noc(=O)[nH]4)C[C@@H]2C)CC3)cc(C)c1F (stereo partly drawn) [Compound 111, 3-[(1S,2S)-1-(2-{[(4S)-3-[3-(4-{[azanylidene(methyl)(oxo)-λ^6-sulfanyl]methyl}phenyl)-2-oxoimidazol-1-yl]-2-(4-fluoro-3,5-dimethylphenyl)-4-methyl-4,5,6,7-tetrahydropyrazolo[4,3-c]pyridin-5-yl]carbonyl}-5-(3,4,5,6-tetrahydro-2H-pyran-4-yl)indol-1-yl)-2-methylcyclopropyl]-4H,5H-1,2,4-oxadiazol-5-one]

The remaining lines, values behind:

Compound | EC50
CCS(=O)(=NC)c1ccc(-n2ccn(-c3c4c(nn3-c3cc(C)c(F)c(C)c3)CCN(C(=O)c3cc5cc(C6CCOCC6)ccc5n3C[C@@H]3CCO3)[C@H]4C)c2=O)cc1 (single isomer, unassigned) [Compound 162] | 3.2 nM
CCS(=O)(=NC)c1ccc(-n2ccn(-c3c4c(nn3-c3cc(C)c(F)c(C)c3)CCN(C(=O)c3cc5cc(C6CCOCC6)ccc5n3C[C@H]3CCO3)[C@H]4C)c2=O)cc1 (single isomer, unassigned) [Compound 165] | 9.9 nM
Cc1cc(-n2nc3c(c2-n2ccn(-c4ccc(S(=N)(=O)CC5CC5)cc4F)c2=O)[C@H](C)N(C(=O)c2cc4cc([C@H]5CCOC(C)(C)C5)ccc4n2[C@@]2(c4noc(=O)[nH]4)C[C@@H]2C)CC3)cc(C)c1F (single isomer, unassigned) [Compound 184] | 0.01 nM
Cc1nnc(Cn2c(C(=O)N3CCc4nn(-c5cc(C)c(F)c(C)c5)c(-n5ccn(-c6ccc(S7(=O)=NCCC7)cc6)c5=O)c4[C@@H]3C)cc3cc(C4CCOCC4)ncc32)o1 (single isomer, unassigned) [Compound 159] | 5.9 nM
Cc1cc(-n2nc3c(c2-n2ccn(-c4ccc5c(c4Cl)CN=S5(C)=O)c2=O)[C@H](C)N(C(=O)c2cc4cc([C@H]5CCOC(C)(C)C5)ccc4n2[C@@]2(c4noc(=O)[nH]4)C[C@@H]2C)CC3)cc(C)c1F (single isomer, unassigned) [Compound 201] | 0.011 nM
Cc1cc(-n2nc3c(c2-n2ccn(-c4ccc(S(C)(=N)=O)cc4)c2=O)[C@H](C)N(C(=O)c2cc4cc(C5CCOCC5)ccc4n2-c2cccc(S(=O)(=O)Nc4ncccn4)c2)CC3)cc(C)c1F (stereo partly drawn) [Compound 119] | 1 nM
CN=S(=O)(c1ccc(-n2ccn(-c3c4c(nn3-c3cc(C)c(F)c(C)c3)CCN(C(=O)c3cc5cc([C@H]6CCOC(C)(C)C6)ccc5n3[C@@]3(c5noc(=O)[nH]5)C[C@@H]3C)[C@H]4C)c2=O)c(F)c1C)C1CC1 (single isomer, unassigned) [Compound 196] | 0.039 nM
CCS(=N)(=O)c1ccc(-n2ccn(-c3c4c(nn3-c3ccc(F)c(C5CC5)c3)CCN(C(=O)c3cc5cc(C6CCOCC6)ccc5n3[C@@]3(c5noc(=O)[nH]5)C[C@@H]3C)[C@H]4C)c2=O)c(F)c1 (single isomer, unassigned) [Compound 166] | 0.019 nM
CC1=Cc2c(ccc(-n3ccn(-c4c5c(nn4-c4cc(C)c(F)c(C)c4)CCN(C(=O)c4cc6cc([C@H]7CCOC(C)(C)C7)ccc6n4[C@@]4(c6noc(=O)[nH]6)C[C@@H]4C)[C@H]5C)c3=O)c2F)S(=O)(C2CC2)=N1 (single isomer, unassigned) [Compound 211] | 0.041 nM
Cc1cc(-n2nc3c(c2-n2ccn(-c4ccc(S5(=O)=NCCC5)cc4)c2=O)[C@H](C)N(C(=O)c2cc4cc(C5CCOCC5)ccc4n2C2(c4nsc(=O)[nH]4)CC2)CC3)cc(C)c1F (single isomer, unassigned) [Compound 130] | 0.23 nM
Cc1cc(-n2nc3c(c2-n2ccn(-c4ccc(S(C)(=N)=O)cc4)c2=O)[C@H](C)N(C(=O)c2cc4cc(C5CCOCC5)ccn4c2C2(c4noc(=O)[nH]4)CC2)CC3)cc(C)c1F (stereo partly drawn) [Compound 107] | 0.46 nM
